Measurements as given in patent US11208412B2 (DAEGU-GYEONGBUK MEDICAL INNOVATION FOUNDATION, priority 2017, dated 2021).

Key:
Experiment in all cases: Kinase selectivity, DiscoverX scanMAX Kinase assay panel (% control)
Assay type in all cases: binding
[1] = target: T1, kinases of the scanMAX Kinase assay panel (Homo sapiens, UniProt O75116); details: kinase ROCK2; 1 uM in DMSO
T1 construct: purchased DiscoverX Co. (contract measurement) scanMAX Kinase assay panel
How it was run: (§1)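 Binding-panel profiling at one concentration, 1 uM in DMSO; values are % of DMSO control after subtracting the positive-control floor. Less than 35% means activity on that kinase.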

[2] = target: T2, kinases of the scanMAX Kinase assay panel (Homo sapiens, UniProt Q13546); details: kinase RIPK1; 1 uM in DMSO
T2 construct: purchased DiscoverX Co. (contract measurement) scanMAX Kinase assay panel
T2 sequence (Q13546 1-671): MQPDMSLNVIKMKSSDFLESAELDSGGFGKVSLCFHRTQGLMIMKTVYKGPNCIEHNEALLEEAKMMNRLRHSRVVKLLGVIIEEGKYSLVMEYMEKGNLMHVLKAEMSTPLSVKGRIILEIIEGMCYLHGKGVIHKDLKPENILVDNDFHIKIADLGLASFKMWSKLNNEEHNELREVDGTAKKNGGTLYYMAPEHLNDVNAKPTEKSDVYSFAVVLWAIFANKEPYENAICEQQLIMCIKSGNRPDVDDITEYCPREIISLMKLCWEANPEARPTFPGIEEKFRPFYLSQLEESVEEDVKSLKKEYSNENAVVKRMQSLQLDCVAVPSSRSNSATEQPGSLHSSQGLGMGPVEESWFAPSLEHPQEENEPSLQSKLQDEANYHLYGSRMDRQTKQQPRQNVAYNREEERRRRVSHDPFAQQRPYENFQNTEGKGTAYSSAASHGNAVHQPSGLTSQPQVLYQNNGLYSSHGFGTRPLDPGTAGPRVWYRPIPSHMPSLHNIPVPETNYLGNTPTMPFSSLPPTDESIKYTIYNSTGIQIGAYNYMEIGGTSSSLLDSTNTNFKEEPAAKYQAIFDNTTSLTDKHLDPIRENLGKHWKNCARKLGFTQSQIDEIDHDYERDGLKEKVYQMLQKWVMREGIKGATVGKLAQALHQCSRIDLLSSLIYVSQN
How it was run: as §1

[3] = target: T3, kinases of the scanMAX Kinase assay panel (Homo sapiens, UniProt Q13627); details: DYRK1A; 1 uM
T3 construct: purchased DiscoverX Co. (contract measurement) scanMAX Kinase assay panel
How it was run: as §1

[4] = target: T4, kinases of the scanMAX Kinase assay panel (Homo sapiens, UniProt P30530); details: AXL; 1 uM
T4 construct: purchased DiscoverX Co. (contract measurement) scanMAX Kinase assay panel
T4 sequence (P30530 26-894): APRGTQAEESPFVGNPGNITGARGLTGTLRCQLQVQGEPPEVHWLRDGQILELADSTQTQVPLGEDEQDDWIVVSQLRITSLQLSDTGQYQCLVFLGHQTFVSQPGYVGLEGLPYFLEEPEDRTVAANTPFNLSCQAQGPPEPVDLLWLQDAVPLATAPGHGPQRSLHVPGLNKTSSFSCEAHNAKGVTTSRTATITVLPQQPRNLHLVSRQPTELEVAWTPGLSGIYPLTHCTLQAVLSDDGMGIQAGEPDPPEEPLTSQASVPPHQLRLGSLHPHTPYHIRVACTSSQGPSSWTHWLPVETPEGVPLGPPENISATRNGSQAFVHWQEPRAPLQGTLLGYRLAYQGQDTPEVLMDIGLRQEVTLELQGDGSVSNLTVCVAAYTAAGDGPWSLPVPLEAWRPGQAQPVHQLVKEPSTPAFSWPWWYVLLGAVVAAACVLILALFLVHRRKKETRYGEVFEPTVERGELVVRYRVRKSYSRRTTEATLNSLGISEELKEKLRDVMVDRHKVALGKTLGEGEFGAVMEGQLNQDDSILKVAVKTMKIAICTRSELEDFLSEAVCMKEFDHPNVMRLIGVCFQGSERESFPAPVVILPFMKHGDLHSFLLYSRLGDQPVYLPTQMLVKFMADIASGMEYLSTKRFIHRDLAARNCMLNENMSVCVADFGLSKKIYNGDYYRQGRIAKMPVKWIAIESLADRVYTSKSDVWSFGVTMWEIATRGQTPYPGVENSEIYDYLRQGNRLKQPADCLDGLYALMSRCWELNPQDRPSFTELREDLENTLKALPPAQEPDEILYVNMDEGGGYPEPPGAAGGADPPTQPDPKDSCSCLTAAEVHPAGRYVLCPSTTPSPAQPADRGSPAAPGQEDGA
How it was run: as §1

[5] = target: T5, kinases of the scanMAX Kinase assay panel (Homo sapiens, UniProt Q9NYL2); details: kinase ZAK; 1 uM in DMSO
T5 construct: purchased DiscoverX Co. (contract measurement) scanMAX Kinase assay panel
T5 sequence (Q9NYL2 whole entry): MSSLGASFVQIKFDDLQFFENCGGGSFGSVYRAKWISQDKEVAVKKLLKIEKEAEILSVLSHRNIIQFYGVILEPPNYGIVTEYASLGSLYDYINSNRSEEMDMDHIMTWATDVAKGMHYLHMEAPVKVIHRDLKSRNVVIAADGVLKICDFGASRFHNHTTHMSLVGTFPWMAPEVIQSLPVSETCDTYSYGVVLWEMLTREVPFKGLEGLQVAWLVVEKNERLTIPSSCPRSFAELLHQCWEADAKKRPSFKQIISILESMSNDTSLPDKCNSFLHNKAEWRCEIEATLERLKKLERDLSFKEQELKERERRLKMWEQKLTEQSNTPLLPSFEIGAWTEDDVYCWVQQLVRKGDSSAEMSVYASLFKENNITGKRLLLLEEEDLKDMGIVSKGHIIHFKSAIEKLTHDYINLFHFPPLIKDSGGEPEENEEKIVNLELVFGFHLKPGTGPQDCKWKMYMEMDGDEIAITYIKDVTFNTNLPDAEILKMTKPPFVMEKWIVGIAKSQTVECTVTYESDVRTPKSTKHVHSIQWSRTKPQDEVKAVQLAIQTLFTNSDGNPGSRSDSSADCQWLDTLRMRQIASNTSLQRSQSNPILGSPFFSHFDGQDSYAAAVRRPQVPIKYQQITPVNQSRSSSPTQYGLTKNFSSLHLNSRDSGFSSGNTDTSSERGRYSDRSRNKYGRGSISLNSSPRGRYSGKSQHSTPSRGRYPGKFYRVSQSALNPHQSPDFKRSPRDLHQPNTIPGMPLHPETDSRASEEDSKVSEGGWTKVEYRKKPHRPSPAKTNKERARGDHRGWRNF
How it was run: as §1

[6] = target: T6, kinases of the scanMAX Kinase assay panel (Homo sapiens, UniProt P10721, D816V); details: KIT(D816V); 1 uM
T6 construct: purchased DiscoverX Co. (contract measurement) scanMAX Kinase assay panel
T6 sequence (P10721 26-976 D816V): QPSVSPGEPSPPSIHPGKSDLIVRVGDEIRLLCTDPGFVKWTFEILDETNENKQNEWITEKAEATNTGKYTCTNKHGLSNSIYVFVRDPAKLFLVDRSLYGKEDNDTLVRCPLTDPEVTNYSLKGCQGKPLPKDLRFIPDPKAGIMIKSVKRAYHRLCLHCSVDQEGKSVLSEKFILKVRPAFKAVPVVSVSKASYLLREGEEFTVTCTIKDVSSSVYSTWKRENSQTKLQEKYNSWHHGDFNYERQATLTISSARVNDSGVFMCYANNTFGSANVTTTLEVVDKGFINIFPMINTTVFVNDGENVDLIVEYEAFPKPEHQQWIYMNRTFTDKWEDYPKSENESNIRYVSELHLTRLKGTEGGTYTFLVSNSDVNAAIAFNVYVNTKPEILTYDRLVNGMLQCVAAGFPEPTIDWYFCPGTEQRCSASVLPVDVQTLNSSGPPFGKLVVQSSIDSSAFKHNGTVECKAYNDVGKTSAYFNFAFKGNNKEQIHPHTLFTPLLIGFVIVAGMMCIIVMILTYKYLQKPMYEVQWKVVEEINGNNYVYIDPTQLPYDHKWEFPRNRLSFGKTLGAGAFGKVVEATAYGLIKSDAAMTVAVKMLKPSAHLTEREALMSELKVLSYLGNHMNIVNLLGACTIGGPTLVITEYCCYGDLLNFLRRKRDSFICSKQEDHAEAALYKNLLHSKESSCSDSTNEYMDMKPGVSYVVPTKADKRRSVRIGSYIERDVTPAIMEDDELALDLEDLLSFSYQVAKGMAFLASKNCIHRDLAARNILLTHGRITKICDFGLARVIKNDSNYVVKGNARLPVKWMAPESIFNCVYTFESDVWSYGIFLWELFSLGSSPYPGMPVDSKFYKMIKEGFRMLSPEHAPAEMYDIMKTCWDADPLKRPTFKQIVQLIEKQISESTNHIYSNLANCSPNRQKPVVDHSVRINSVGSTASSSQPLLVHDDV
How it was run: as §1

T1 sequence (O75116 whole entry): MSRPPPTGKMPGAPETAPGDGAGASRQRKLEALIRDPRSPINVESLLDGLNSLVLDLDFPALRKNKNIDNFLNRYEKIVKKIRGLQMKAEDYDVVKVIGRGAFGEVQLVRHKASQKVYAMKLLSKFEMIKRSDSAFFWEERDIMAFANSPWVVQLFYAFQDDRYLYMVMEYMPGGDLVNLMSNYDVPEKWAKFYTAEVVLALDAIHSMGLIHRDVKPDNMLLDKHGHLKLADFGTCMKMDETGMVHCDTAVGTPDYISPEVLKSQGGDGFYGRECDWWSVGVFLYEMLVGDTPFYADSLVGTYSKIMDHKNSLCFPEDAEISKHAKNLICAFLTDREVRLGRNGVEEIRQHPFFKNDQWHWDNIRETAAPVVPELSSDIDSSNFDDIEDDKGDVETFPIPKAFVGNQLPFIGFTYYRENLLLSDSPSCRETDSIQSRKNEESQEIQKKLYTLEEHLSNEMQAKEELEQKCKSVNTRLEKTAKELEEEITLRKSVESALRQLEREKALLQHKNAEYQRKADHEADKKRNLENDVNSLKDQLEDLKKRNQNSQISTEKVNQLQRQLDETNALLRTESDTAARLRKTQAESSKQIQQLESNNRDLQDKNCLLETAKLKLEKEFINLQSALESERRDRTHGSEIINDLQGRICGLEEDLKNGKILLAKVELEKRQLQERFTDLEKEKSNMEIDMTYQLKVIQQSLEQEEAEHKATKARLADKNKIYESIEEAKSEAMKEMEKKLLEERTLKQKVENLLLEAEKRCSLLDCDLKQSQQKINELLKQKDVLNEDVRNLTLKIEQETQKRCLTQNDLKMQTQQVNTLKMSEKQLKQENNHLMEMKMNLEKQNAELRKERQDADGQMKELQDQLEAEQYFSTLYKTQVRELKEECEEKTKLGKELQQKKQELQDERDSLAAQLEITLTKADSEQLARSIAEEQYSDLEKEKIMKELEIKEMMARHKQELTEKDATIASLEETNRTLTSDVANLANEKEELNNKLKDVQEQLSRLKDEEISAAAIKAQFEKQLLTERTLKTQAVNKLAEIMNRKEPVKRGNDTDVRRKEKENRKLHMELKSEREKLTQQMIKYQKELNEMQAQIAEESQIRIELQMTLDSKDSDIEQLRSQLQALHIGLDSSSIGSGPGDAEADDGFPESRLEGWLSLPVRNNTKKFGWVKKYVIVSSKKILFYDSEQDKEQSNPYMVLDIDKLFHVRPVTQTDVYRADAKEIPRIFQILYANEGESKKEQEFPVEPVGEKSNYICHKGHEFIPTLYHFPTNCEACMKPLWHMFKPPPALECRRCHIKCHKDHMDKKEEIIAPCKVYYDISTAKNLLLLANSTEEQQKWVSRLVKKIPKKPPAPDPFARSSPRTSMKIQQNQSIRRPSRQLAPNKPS

CNc1nc(Nc2ccc(C(=O)N3CCOCC3)cc2OC)nc2[nH]cc(C#N)c12 [Example 1, 2-((2-methoxy-4-(morpholine-4-carbonyl)phenyl)amino)-4-(methylamino)-7H-pyrrolo[2,3-d]pyrimidine-5-carbonitrile]
remaining binding at 1 µM [1]: 56%
remaining binding at 1 µM [2]: 94%
remaining binding at 1 µM [3]: 4.1%
remaining binding at 1 µM [4]: 90%
remaining binding at 1 µM [5]: 100%
remaining binding at 1 µM [6]: 89%

CC1(Nc2nc(Nc3cnn([C@H]4CCN(C5COC5)C[C@@H]4F)c3Cl)nc3[nH]cc(C#N)c23)CC1 [Example 52, 2-((5-chloro-1-((3S,4S)-3-fluoro-1-(oxetane-3-yl)piperidine-4-yl)-1H-pyrazole-4-yl)amino)((1-methylcyclopropyl)amino)-7H-pyrrolo[2,3-d]pyrimidine-5-carbonitrile]
remaining binding at 1 µM [1]: 23%
remaining binding at 1 µM [2]: 14%
remaining binding at 1 µM [3]: 0.15%
remaining binding at 1 µM [4]: 0%
remaining binding at 1 µM [5]: 88%
remaining binding at 1 µM [6]: 0.15%

CCNc1nc(Nc2ccc(C(=O)N3CCC(N4CCOCC4)CC3)cc2OC)nc2[nH]cc(C(F)(F)F)c12 [Example 104, (4-((4-(ethylamino)-5-(trifluoromethyl)-7H-pyrrolo[2,3-d]pyrimidine-2-yl)amino)-3-methoxyphenyl)(4-morpholinopiperidine-1-yl)methanone]
remaining binding at 1 µM [1]: 100%
remaining binding at 1 µM [2]: 100%
remaining binding at 1 µM [3]: 0.05%
remaining binding at 1 µM [4]: 69%
remaining binding at 1 µM [5]: 100%
remaining binding at 1 µM [6]: 99%
